Laboratory results reported in ChEMBL document CHEMBL4152332, “Discovery and synthesis of novel magnolol derivatives with potent anticancer activity in non-small cell lung cancer” (Eur J Med Chem, 2018).

Experiments:
Format in all cases: functional, cell-based
HCC827 = assay: Antiproliferative activity against human HCC827 cells after 72 hrs by MTT assay; details: HCC827, 72 h
NCI-H460 = assay: Antiproliferative activity against human H460 cells after 72 hrs by MTT assay; details: NCI-H460, 72 h
NCI-H1975 = assay: Antiproliferative activity against human NCI-H1975 cells after 72 hrs by MTT assay; details: NCI-H1975, 72 h

SMILES	IC50 (HCC827) [µM]	IC50 (NCI-H460) [µM]	IC50 (NCI-H1975) [µM]
C=CCc1cc(-c2cc(CC(O)CO)ccc2O)ccc1O (stereo unspecified) [MAGNOLIGNAN]	> 40	> 40	> 40
C=CCc1ccc(O)c(-c2ccc(O)c(CC(O)CO)c2)c1 (stereo unspecified)	> 40	> 40	> 40
C=CCc1ccc(O)c(-c2cc(CC=C)cc(CN3CCCCC3)c2O)c1	> 20	> 20	> 20
C=CCc1cc(-c2cc(C(=O)O)ccc2O)ccc1O	> 40	> 40	> 40
OCC(O)Cc1ccc(O)c(-c2cc(CC(O)CO)ccc2O)c1 (stereo unspecified)	> 40	> 40	> 40
C=CCc1ccc(O)c(-c2cc(CC=C)cc(CN3CCN(C(=O)OC(C)(C)C)CC3)c2O)c1	> 20	> 20	> 20
C=CCc1ccc(O)c(-c2cc(/C=C/CO)ccc2O)c1	> 40	> 40	> 40
C=CCc1ccc(O)c(-c2cc(CC=C)cc(CN3CCNCC3)c2O)c1	> 20	> 20	> 20
C=CCc1ccc(O)c(-c2cc(CC=C)cc(CN3CCC(CNC(=O)OC(C)(C)C)CC3)c2O)c1	> 20	> 20	> 20
C=CCc1cc(-c2cc(CC=C)cc([C@@H]3C=C(C)CC[C@H]3C(C)C)c2O)c(O)c([C@@H]2C=C(C)CC[C@H]2C(C)C)c1	> 40	> 40	> 40
C=CCc1ccc(O)c(-c2cc(CC=C)cc(CN3CCCC(CO)C3)c2O)c1 (stereo unspecified)	> 20	> 20	> 20
C=CCc1ccc(O)c(-c2cc(CC=C)cc(CN3CCCC(C)C3)c2O)c1 (stereo unspecified)	> 20	> 20	> 20
C=CCc1ccc(O)c(-c2cc(CC=C)cc(CN3CCN(Cc4ccccc4)CC3)c2O)c1	> 20	> 20	> 20
C=CCc1ccc(O)c(-c2cc(CC=C)cc(CN3CCN(C(=O)OCC)CC3)c2O)c1	> 20	> 20	> 20
C=CCc1ccc(O)c(-c2cc(CC=C)cc(CN3CCN(C)CC3)c2O)c1	> 20	> 20	> 20
C=CCc1ccc(O)c(-c2cc(CC=C)cc(CN3CCN(c4ccccc4)CC3)c2O)c1	> 20	> 20	> 20

Results, then the compound that gave them:

IC50 (HCC827) [µM]	IC50 (NCI-H460) [µM]	IC50 (NCI-H1975) [µM]	SMILES
> 20	> 20	> 20	C=CCc1ccc(O)c(-c2cc(CC=C)cc(CN3CCOCC3)c2O)c1
> 20	> 20	> 20	C=CCc1ccc(O)c(-c2cc(CC=C)cc(CN3CCN(C=O)CC3)c2O)c1
> 20	> 20	> 20	C=CCc1ccc(O)c(-c2cc(CC=C)cc(CN3CCN(CCCO)CC3)c2O)c1
> 20	> 20	> 20	C=CCc1ccc(O)c(-c2cc(CC=C)cc(CN3CCN(C(C)=O)CC3)c2O)c1
> 20	> 20	> 20	C=CCc1ccc(O)c(-c2cc(CC=C)cc(CN3CCCC(NC(=O)C=C)C3)c2O)c1 (stereo unspecified)
26.4	25.3	25.8	C=CCc1ccc(O)c(-c2ccc(O)c(/C=C/C)c2)c1
> 20	> 20	> 20	C=CCc1ccc(O)c(-c2cc(CC=C)cc(CN3CCC(C(=O)OCC)CC3)c2O)c1
18.9	17.4	16.5	C=CCc1ccc(O)c(-c2cc(CC=C)cc(CN3CCN(CCO)CC3)c2O)c1
33.6	31.6	34.5	C=CCc1cc(-c2cc(/C=C/CO)ccc2O)ccc1O
12.9	17.5	15.8	C=CCc1ccc(O)c(-c2cc(CC=C)cc(CN3CCC(NC(=O)OC(C)(C)C)CC3)c2O)c1
31.4	27.6	26.7	C=CCc1cc(-c2ccc(O)c(CC=C)c2)c(O)c([C@@H]2C=C(C)CC[C@H]2C(C)C)c1
